# In patent US9695155B2, “Herbicidal substituted pyrimidinyloxy benzene compounds” (E. I. DU PONT DE NEMOURS AND COMPANY, priority 2013, dated 2017):
# Tests used:
# field violet [1] = assay: Test D preemergence; type: in vivo, Viola arvensis; settings: Viola arvensis, pre-emergence
# Method in brief: (§1)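 Greenhouse herbicide screen. Sowing into silt loam for preemergence application; foliar application to 2–18 cm seedlings in potting mix for postemergence. 0–100 visual control rating after 7–21 d.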
# spring wheat [2] = assay: Test D preemergence; type: in vivo, Triticum aestivum; settings: Triticum aestivum, pre-emergence
# Method in brief: as §1
# winter wheat [3] = assay: Test D preemergence; type: in vivo, Triticum aestivum; settings: Triticum aestivum, pre-emergence
# Method in brief: as §1
# wild oat = assay: Test D preemergence; type: in vivo, Avena fatua; settings: Avena fatua, pre-emergence
# From the text: (§2) Seeds of plant species selected from bluegrass (annual bluegrass, Poa annua), blackgrass (Alopecurus myosuroides), canarygrass (littleseed canarygrass, Phalaris minor), chickweed (common chickweed, Stellaria media), galium (catchweed bedstraw, Galium aparine), bromegrass, downy (downy bromegrass, Bromus tectorum), field poppy (Papaver rhoeas), field violet (Viola arvensis), green foxtail (Setaria viridis), deadnettle (henbit deadnettle, Lamium amplexicaule), Italian ryegrass (Lolium multiflorum), kochia (Kochia scoparia), lambsquarters (Chenopodium album), oilseed rape (Brassica napus), pigweed (Amaranthus retroflexus), chamomile (scentless chamomile, Matricaria inodora), Russian thistle (Salsola kali), speedwell (bird's-eye speedwell, Veronica persica), spring barley (Hordeum vulgare), spring wheat (Triticum aestivum), wild buckwheat (Polygonum convolvulus), wild mustard (Sinapis arvensis), wild oat (Avena fatua), wild radish (Raphanus raphanistrum), windgrass (Apera spica-venti), winter barley (Hordeum vulgare), and winter wheat (Triticum aestivum) were planted into a silt loam soil and treated preemergence with test chemicals formulated in a non-phytotoxic solvent mixture which included a surfactant.
# (§3) At the same time, these species were planted in pots containing Redi-Earth® planting medium (Scotts Company, 14111 Scottslawn Road, Marysville, Ohio 43041) comprising spaghnum peat moss, vermiculite, wetting agent and starter nutrients and treated with postemergence applications of the test chemicals formulated in the same manner. Plants ranged in height from 2 to 18 cm (1- to 4-leaf stage). Treated plants and controls were maintained in a controlled growth environment for 7 to 21 days after which time all species were compared to controls and visually evaluated. Plant response ratings, summarized in Table D, are based on a scale of 0 to 100 where 0 is no effect and 100 is complete control. A dash (-) response means no test result.
# wild radish = assay: Test D preemergence; type: in vivo, Raphanus raphanistrum; settings: Raphanus raphanistrum, pre-emergence
# From the text: as §2, §3
# field violet [4] = assay: Test D postemergence; type: in vivo, Viola arvensis; settings: Viola arvensis, post-emergence
# From the text: as §2, §3
# oilseed rape = assay: Test D postemergence; type: in vivo, Brassica napus; settings: Brassica napus, post-emergence
# Method in brief: as §1
# pigweed = assay: Test D postemergence; type: in vivo, Amaranthus retroflexus; settings: Amaranthus retroflexus, post-emergence
# From the text: as §2, §3
# spring wheat [5] = assay: Test D postemergence; type: in vivo, Triticum aestivum; settings: Triticum aestivum, post-emergence
# From the text: as §2, §3
# winter wheat [6] = assay: Test D postemergence; type: in vivo, Triticum aestivum; settings: Triticum aestivum, post-emergence
# From the text: as §2, §3
smiles,measurement,setting,value
"Fc1cccc(Oc2ncc(Cl)cn2)c1-n1cc(C(F)F)nn1 [Compound 141, 5-chloro-2-[2-[4-(difluoromethyl)-1H-1,2,3-triazol-1-yl]-3-fluorophenoxy]pyrimidine]",pest or weed control at 16 g/ha,"field violet [1]; 16 g ai/ha, scale 0 (no effect) to 100 (complete control), read-out: Plant response rating, Field Violet",100%
same,pest or weed control at 31 g/ha,"field violet [1]; 31 g ai/ha, scale 0-100, read-out: Plant response rating, Field Violet",100%
same,pest or weed control at 62 g/ha,"field violet [1]; 62 g ai/ha, scale 0-100, read-out: Plant response rating, Field Violet",100%
same,pest or weed control at 125 g/ha,"field violet [1]; 125 g ai/ha, scale 0-100, read-out: Plant response rating, Field Violet",100%
same,plant injury at 16 g/ha,"spring wheat [2]; 16 g ai/ha, scale 0 (no effect) to 100 (complete control), read-out: Plant response rating, Wheat, Spring",25%
same,plant injury at 31 g/ha,"spring wheat [2]; 31 g ai/ha, scale 0 (no effect) to 100 (complete control), read-out: Plant response rating, Wheat, Spring",30%
same,plant injury at 62 g/ha,"spring wheat [2]; 62 g ai/ha, scale 0-100, read-out: Plant response rating, Wheat, Spring",65%
same,plant injury at 125 g/ha,"spring wheat [2]; 125 g ai/ha, scale 0-100, read-out: Plant response rating, Wheat, Spring",75%
same,plant injury at 16 g/ha,"winter wheat [3]; 16 g ai/ha, scale 0 (no effect) to 100 (complete control), read-out: Plant response rating, Wheat, Winter",15%
same,plant injury at 31 g/ha,"winter wheat [3]; 31 g ai/ha, scale 0 (no effect) to 100 (complete control), read-out: Plant response rating, Wheat, Winter",20%
same,plant injury at 62 g/ha,"winter wheat [3]; 62 g ai/ha, scale 0-100, read-out: Plant response rating, Wheat, Winter",60%
same,plant injury at 125 g/ha,"winter wheat [3]; 125 g ai/ha, scale 0-100, read-out: Plant response rating, Wheat, Winter",60%
same,pest or weed control at 16 g/ha,"wild oat; 16 g ai/ha, scale 0 (no effect) to 100 (complete control), read-out: Plant response rating, Oat, Wild",30%
same,pest or weed control at 31 g/ha,"wild oat; 31 g ai/ha, scale 0-100, read-out: Plant response rating, Oat, Wild",65%
same,pest or weed control at 62 g/ha,"wild oat; 62 g ai/ha, scale 0-100, read-out: Plant response rating, Oat, Wild",80%
same,pest or weed control at 125 g/ha,"wild oat; 125 g ai/ha, scale 0-100, read-out: Plant response rating, Oat, Wild",98%
same,pest or weed control at 16 g/ha,"wild radish; 16 g ai/ha, scale 0 (no effect) to 100 (complete control), read-out: Plant response rating, Radish, Wild",40%
same,pest or weed control at 31 g/ha,"wild radish; 31 g ai/ha, scale 0 (no effect) to 100 (complete control), read-out: Plant response rating, Radish, Wild",98%
same,pest or weed control at 62 g/ha,"wild radish; 62 g ai/ha, scale 0-100, read-out: Plant response rating, Radish, Wild",100%
same,pest or weed control at 125 g/ha,"wild radish; 125 g ai/ha, scale 0-100, read-out: Plant response rating, Radish, Wild",100%
same,pest or weed control at 16 g/ha,"field violet [4]; 16 g ai/ha, scale 0-100, read-out: Plant response rating, Field Violet",45%
same,pest or weed control at 31 g/ha,"field violet [4]; 31 g ai/ha, scale 0 to 100 (0 no effect, 100 complete control), read-out: Plant response rating, Field Violet",75%
same,pest or weed control at 62 g/ha,"field violet [4]; 62 g ai/ha, scale 0 to 100 (0 no effect, 100 complete control), read-out: Plant response rating, Field Violet",85%
same,pest or weed control at 125 g/ha,"field violet [4]; 125 g ai/ha, scale 0 to 100 (0 no effect, 100 complete control), read-out: Plant response rating, Field Violet",95%
same,plant injury at 16 g/ha,"oilseed rape; 16 g ai/ha, scale 0-100, read-out: Plant response rating, Oilseed Rape",75%
same,plant injury at 31 g/ha,"oilseed rape; 31 g ai/ha, scale 0 to 100 (0 no effect, 100 complete control), read-out: Plant response rating, Oilseed Rape",95%
same,plant injury at 62 g/ha,"oilseed rape; 62 g ai/ha, scale 0 to 100 (0 no effect, 100 complete control), read-out: Plant response rating, Oilseed Rape",100%
same,plant injury at 125 g/ha,"oilseed rape; 125 g ai/ha, scale 0 to 100 (0 no effect, 100 complete control), read-out: Plant response rating, Oilseed Rape",100%
same,pest or weed control at 16 g/ha,"pigweed; 16 g ai/ha, scale 0-100, read-out: Plant response rating, Pigweed",98%
same,pest or weed control at 31 g/ha,"pigweed; 31 g ai/ha, scale 0 to 100 (0 no effect, 100 complete control), read-out: Plant response rating, Pigweed",98%
same,pest or weed control at 62 g/ha,"pigweed; 62 g ai/ha, scale 0 to 100 (0 no effect, 100 complete control), read-out: Plant response rating, Pigweed",100%
same,pest or weed control at 125 g/ha,"pigweed; 125 g ai/ha, scale 0 to 100 (0 no effect, 100 complete control), read-out: Plant response rating, Pigweed",100%
same,plant injury at 16 g/ha,"spring wheat [5]; 16 g ai/ha, scale 0-100, read-out: Plant response rating, Wheat, Spring",15%
same,plant injury at 31 g/ha,"spring wheat [5]; 31 g ai/ha, scale 0 to 100 (0 no effect, 100 complete control), read-out: Plant response rating, Wheat, Spring",20%
same,plant injury at 62 g/ha,"spring wheat [5]; 62 g ai/ha, scale 0 to 100 (0 no effect, 100 complete control), read-out: Plant response rating, Wheat, Spring",25%
same,plant injury at 125 g/ha,"spring wheat [5]; 125 g ai/ha, scale 0 to 100 (0 no effect, 100 complete control), read-out: Plant response rating, Wheat, Spring",35%
same,plant injury at 16 g/ha,"winter wheat [6]; 16 g ai/ha, scale 0-100, read-out: Plant response rating, Wheat, Winter",5%
same,plant injury at 31 g/ha,"winter wheat [6]; 31 g ai/ha, scale 0 to 100 (0 no effect, 100 complete control), read-out: Plant response rating, Wheat, Winter",5%
same,plant injury at 62 g/ha,"winter wheat [6]; 62 g ai/ha, scale 0 to 100 (0 no effect, 100 complete control), read-out: Plant response rating, Wheat, Winter",20%
same,plant injury at 125 g/ha,"winter wheat [6]; 125 g ai/ha, scale 0 to 100 (0 no effect, 100 complete control), read-out: Plant response rating, Wheat, Winter",50%
